Reference: ChEMBL document CHEMBL1145498, “A systematic interaction map of validated kinase inhibitors with Ser/Thr kinases” (Proc Natl Acad Sci U S A, 2007)

What was measured:
[1] = molecular target: Ribosomal protein S6 kinase alpha-3 (Homo sapiens) (UniProt P51812)
[2] = molecular target: Dual specificity mitogen-activated protein kinase kinase 2 (Homo sapiens, UniProt P36507)
[3] = molecular target: Serine/threonine-protein kinase 25 (Homo sapiens) (UniProt O00506)
[4] = molecular target: Tyrosine-protein kinase JAK1 (Homo sapiens) (UniProt P23458)
[5] = molecular target: Calcium/calmodulin-dependent protein kinase type II subunit delta (Homo sapiens) (UniProt Q13557)
[6] = molecular target: Casein kinase I isoform gamma-2 (Homo sapiens) (UniProt P78368)
[7] = molecular target: T1, Dual specificity mitogen-activated protein kinase kinase 6 (Homo sapiens) (UniProt P52564)
T1 sequence (whole entry): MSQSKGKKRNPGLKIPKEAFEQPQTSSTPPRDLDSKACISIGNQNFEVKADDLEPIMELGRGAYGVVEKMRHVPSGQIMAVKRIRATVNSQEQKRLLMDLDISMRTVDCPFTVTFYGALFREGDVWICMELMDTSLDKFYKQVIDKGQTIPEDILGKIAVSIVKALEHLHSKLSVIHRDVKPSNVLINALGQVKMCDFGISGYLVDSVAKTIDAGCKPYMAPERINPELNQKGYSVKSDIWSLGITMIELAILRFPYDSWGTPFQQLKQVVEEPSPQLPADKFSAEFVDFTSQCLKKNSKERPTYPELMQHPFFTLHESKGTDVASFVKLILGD

[8] = molecular target: cAMP-dependent protein kinase catalytic subunit alpha (Homo sapiens) (UniProt P17612)
[9] = molecular target: T2, Lymphokine-activated killer T-cell-originated protein kinase (Homo sapiens) (UniProt Q96KB5)
T2 sequence (whole entry): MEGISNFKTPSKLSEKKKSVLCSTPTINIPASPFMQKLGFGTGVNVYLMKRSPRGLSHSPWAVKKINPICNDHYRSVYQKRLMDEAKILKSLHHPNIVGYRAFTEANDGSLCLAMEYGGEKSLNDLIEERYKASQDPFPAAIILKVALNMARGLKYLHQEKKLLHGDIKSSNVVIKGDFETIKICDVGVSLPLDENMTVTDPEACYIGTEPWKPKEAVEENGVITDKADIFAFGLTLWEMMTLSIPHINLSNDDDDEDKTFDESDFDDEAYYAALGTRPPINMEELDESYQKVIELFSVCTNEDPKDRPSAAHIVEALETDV

[10] = molecular target: Calcium/calmodulin-dependent protein kinase type 1G (Homo sapiens) (UniProt Q96NX5)
[11] = molecular target: Serine/threonine-protein kinase PAK 5 (Homo sapiens) (UniProt Q9P286)
[12] = molecular target: Calcium/calmodulin-dependent protein kinase kinase 2 (Homo sapiens, UniProt Q96RR4)
[13] = molecular target: Casein kinase I isoform gamma-1 (Homo sapiens) (UniProt Q9HCP0)
[14] = molecular target: Serine/threonine-protein kinase 26 (Homo sapiens) (UniProt Q9P289)
[15] = molecular target: Serine/threonine-protein kinase Nek6 (Homo sapiens) (UniProt Q9HC98)
[16] = molecular target: Cyclin-dependent kinase 2 (Homo sapiens, UniProt P24941)
[17] = molecular target: Glycogen synthase kinase-3 beta (Homo sapiens, UniProt P49841)
[18] = molecular target: Death-associated protein kinase 3 (Homo sapiens) (UniProt O43293)
[19] = molecular target: TRAF2 and NCK-interacting protein kinase (Homo sapiens) (UniProt Q9UKE5)
[20] = molecular target: Serine/threonine-protein kinase 10 (Homo sapiens) (UniProt O94804)
[21] = molecular target: Serine/threonine-protein kinase pim-3 (Homo sapiens) (UniProt Q86V86)
[22] = molecular target: Mitogen-activated protein kinase 3 (Homo sapiens, UniProt P27361)
[23] = molecular target: Serine/threonine-protein kinase OSR1 (Homo sapiens) (UniProt O95747)
[24] = molecular target: Cyclin-dependent kinase 16 (Homo sapiens) (UniProt Q00536)
[25] = molecular target: 5'-AMP-activated protein kinase catalytic subunit alpha-2 (Homo sapiens) (UniProt P54646)
[26] = molecular target: Dual specificity protein kinase CLK2 (Homo sapiens) (UniProt P49760)
[27] = molecular target: Calcium/calmodulin-dependent protein kinase type 1D (Homo sapiens) (UniProt Q8IU85)
[28] = molecular target: Serine/threonine-protein kinase PLK1 (Homo sapiens) (UniProt P53350)
[29] = molecular target: Serine/threonine-protein kinase RIO2 (Homo sapiens) (UniProt Q9BVS4)
[30] = molecular target: STE20-like serine/threonine-protein kinase (Homo sapiens) (UniProt Q9H2G2)

Sequence of Serine/threonine-protein kinase 25 (Homo sapiens) (O00506 whole entry, looked up): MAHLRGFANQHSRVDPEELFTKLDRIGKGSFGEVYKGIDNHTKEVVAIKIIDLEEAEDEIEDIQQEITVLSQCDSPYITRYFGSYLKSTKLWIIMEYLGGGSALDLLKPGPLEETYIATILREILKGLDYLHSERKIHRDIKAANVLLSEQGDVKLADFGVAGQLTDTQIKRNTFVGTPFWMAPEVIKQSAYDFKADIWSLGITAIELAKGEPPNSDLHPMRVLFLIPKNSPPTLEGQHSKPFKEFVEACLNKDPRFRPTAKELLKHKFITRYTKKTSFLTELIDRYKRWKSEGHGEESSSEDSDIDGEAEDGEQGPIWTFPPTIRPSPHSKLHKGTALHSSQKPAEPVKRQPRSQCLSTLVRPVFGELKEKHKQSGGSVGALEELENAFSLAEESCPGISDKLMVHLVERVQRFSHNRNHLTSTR
Sequence of Serine/threonine-protein kinase OSR1 (Homo sapiens) (O95747 2-527 limits assumed): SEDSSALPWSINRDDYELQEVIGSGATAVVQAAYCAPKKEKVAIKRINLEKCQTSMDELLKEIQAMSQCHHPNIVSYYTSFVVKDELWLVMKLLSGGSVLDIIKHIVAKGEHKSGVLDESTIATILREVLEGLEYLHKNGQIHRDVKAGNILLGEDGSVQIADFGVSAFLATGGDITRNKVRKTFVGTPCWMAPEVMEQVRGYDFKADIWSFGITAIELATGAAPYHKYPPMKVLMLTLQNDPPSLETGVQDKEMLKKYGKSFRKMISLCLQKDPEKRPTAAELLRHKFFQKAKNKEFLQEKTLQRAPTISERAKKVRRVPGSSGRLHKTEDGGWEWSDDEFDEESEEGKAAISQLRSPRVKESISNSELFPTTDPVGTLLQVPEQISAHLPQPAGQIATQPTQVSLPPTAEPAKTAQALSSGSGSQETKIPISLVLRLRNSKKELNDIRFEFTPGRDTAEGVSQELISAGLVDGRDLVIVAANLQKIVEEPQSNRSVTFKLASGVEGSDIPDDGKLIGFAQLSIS
Sequence of Calcium/calmodulin-dependent protein kinase type 1G (Homo sapiens) (Q96NX5 whole entry): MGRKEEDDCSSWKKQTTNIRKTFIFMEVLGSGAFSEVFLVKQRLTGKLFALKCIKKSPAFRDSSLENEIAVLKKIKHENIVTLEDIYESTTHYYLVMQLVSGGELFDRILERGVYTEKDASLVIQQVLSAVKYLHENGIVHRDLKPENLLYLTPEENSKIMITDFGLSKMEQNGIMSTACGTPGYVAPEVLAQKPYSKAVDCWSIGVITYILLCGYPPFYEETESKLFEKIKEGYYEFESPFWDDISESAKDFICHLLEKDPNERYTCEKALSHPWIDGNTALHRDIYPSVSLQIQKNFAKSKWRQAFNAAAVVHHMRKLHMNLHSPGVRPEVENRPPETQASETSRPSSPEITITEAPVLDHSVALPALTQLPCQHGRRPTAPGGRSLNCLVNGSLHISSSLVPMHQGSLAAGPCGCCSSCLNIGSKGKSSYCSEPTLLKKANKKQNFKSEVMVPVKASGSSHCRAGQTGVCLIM
Sequence of Dual specificity mitogen-activated protein kinase kinase 2 (P36507 whole entry): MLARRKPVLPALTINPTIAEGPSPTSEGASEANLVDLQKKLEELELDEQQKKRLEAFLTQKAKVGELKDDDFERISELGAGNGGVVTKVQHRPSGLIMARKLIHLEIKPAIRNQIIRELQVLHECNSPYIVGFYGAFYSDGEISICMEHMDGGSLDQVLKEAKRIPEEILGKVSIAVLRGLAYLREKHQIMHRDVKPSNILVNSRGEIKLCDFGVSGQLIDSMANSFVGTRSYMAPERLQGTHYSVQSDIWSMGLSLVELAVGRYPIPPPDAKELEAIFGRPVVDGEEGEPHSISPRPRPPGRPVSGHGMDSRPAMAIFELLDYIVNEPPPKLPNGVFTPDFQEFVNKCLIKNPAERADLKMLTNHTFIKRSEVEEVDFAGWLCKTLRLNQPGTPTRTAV
Sequence of 5'-AMP-activated protein kinase catalytic subunit alpha-2 (Homo sapiens) (P54646 whole entry, looked up): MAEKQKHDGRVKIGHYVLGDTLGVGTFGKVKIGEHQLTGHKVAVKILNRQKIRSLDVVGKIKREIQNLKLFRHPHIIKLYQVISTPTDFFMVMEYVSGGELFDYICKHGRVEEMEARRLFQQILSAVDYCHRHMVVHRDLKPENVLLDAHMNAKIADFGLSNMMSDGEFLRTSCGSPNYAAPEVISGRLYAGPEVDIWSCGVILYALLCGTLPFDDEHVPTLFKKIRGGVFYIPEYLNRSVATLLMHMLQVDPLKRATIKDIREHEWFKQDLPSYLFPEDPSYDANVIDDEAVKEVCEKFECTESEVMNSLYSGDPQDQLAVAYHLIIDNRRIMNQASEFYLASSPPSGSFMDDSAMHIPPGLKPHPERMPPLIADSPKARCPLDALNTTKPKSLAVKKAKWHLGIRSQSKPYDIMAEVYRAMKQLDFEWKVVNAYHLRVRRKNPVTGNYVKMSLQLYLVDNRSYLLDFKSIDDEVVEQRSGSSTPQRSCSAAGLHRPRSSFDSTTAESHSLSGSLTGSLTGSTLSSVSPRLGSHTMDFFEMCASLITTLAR
Sequence of Calcium/calmodulin-dependent protein kinase type 1D (Homo sapiens) (Q8IU85 whole entry, looked up): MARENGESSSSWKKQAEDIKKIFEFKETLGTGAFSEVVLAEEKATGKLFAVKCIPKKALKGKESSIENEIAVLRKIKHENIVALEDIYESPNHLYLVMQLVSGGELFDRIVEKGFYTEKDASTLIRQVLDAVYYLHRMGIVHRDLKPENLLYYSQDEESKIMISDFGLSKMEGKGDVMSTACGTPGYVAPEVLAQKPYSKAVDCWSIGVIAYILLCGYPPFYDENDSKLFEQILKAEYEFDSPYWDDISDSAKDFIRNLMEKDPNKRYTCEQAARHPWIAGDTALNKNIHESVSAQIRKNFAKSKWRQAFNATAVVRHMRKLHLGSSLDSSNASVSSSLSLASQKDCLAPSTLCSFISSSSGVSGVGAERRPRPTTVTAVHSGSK
Sequence of Death-associated protein kinase 3 (Homo sapiens) (O43293 whole entry, looked up): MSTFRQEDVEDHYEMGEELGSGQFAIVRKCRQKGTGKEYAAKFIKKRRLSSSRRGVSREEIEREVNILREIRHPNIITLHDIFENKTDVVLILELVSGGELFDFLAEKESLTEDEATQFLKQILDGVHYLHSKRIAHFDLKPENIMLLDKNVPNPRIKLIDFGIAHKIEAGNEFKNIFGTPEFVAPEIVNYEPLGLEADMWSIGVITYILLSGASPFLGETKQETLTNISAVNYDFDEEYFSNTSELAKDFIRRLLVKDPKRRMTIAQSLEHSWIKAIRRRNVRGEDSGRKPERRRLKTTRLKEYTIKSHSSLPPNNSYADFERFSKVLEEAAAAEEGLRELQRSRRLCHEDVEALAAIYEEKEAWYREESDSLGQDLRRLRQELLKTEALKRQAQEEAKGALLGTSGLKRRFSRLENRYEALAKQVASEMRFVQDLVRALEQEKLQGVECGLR
Sequence of Serine/threonine-protein kinase 10 (Homo sapiens) (O94804 whole entry, looked up): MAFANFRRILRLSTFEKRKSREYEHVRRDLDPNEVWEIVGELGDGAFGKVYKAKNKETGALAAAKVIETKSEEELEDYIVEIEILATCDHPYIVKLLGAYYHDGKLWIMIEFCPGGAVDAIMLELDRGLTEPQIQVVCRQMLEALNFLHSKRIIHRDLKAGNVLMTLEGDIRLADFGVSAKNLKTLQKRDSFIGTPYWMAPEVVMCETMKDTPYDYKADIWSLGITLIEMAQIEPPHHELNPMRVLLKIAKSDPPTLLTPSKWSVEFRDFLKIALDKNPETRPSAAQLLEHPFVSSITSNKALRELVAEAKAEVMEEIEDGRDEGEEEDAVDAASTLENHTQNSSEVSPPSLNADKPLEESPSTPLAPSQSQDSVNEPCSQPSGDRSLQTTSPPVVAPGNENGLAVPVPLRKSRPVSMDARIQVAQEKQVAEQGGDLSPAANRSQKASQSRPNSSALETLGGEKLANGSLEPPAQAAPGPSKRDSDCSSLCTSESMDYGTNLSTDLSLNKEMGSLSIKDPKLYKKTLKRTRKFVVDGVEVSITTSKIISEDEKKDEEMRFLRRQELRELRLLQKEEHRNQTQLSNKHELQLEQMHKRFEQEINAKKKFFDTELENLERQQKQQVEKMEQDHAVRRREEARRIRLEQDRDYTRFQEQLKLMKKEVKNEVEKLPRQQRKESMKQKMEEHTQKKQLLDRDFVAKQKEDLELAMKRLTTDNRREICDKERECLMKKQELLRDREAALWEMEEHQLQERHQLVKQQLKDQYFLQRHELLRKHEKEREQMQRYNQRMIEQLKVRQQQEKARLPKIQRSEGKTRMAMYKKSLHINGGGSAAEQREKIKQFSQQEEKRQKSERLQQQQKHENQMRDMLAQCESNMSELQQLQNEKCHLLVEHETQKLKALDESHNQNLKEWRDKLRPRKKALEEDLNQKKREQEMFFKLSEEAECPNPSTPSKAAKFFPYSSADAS
Sequence of Ribosomal protein S6 kinase alpha-3 (Homo sapiens) (P51812 whole entry): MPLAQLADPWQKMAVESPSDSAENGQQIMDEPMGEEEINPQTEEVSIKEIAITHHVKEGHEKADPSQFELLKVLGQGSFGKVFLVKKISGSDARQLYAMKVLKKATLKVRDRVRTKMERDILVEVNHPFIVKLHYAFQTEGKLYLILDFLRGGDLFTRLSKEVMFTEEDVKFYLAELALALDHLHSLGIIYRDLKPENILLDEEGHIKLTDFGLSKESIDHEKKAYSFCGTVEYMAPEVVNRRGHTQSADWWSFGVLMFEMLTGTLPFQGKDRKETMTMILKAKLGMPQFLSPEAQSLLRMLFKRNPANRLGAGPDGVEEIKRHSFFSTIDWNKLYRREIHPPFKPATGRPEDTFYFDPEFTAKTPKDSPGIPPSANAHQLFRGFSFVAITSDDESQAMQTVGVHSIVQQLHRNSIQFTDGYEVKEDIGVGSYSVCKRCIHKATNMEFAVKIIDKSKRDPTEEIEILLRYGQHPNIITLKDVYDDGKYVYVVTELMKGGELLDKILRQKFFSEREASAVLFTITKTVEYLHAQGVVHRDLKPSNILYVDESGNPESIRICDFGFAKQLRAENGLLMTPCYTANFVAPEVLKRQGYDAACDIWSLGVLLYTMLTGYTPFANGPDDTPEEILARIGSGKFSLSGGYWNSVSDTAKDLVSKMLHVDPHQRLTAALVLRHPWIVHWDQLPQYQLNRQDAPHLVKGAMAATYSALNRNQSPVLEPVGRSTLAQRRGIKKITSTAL

| SMILES | ΔTm [1] [°C] | ΔTm [2] [°C] | ΔTm [3] [°C] | ΔTm [4] [°C] | ΔTm [5] [°C] | ΔTm [6] [°C] | ΔTm [7] [°C] | ΔTm [8] [°C] | ΔTm [9] [°C] | ΔTm [10] [°C] | ΔTm [11] [°C] | ΔTm [12] [°C] | ΔTm [13] [°C] | ΔTm [14] [°C] | ΔTm [15] [°C] | ΔTm [16] [°C] | ΔTm [17] [°C] | ΔTm [18] [°C] | ΔTm [19] [°C] | ΔTm [20] [°C] | also measured |
| --- | --- | --- | --- | --- | --- | --- | --- | --- | --- | --- | --- | --- | --- | --- | --- | --- | --- | --- | --- | --- | --- |
| Oc1cccc(-c2nc(N3CCOCC3)c3oc4ncccc4c3n2)c1 | -0.6 | 0.3 | -0.6 | 0.1 | -0.6 | 0.1 | 0 | 0.8 | 0.5 | 0.1 | 0.8 | -0.3 | 0.4 | 0.9 | 0.4 | 0.4 | 0.1 | 0 | 0.3 | -0.4 | ΔTm [21]: 0.6 °C; ΔTm [22]: 0 °C; ΔTm [23]: 2 °C; ΔTm [24]: -0.1 °C; ΔTm [25]: -0.1 °C; ΔTm [26]: 0 °C; ΔTm [27]: 0.4 °C; ΔTm [28]: 0.3 °C; ΔTm [29]: -0.3 °C; ΔTm [30]: 0.3 °C |
| CC(C)n1cnc2c(NCc3ccccc3O)nc(NCCCO)nc21 | 0.7 | -0.2 | 0.3 | 0.8 | -0.1 | 0.7 | 0.1 | 0.2 | 0.7 | 0.1 | 0.2 | 0.2 | 0.5 | 0.3 | 0 | 1.2 | 0.3 | 0.2 | 0 | 0.5 | ΔTm [21]: 0.4 °C; ΔTm [22]: 0.4 °C; ΔTm [23]: 0.3 °C; ΔTm [24]: -0.2 °C; ΔTm [25]: 0.2 °C; ΔTm [26]: 1 °C; ΔTm [27]: 0 °C; ΔTm [28]: 0.5 °C; ΔTm [29]: -0.1 °C; ΔTm [30]: 0 °C |
| O=Nc1c(-c2c(O)[nH]c3ccccc23)[nH]c2ccccc12 | 0 | 4.4 | 3.8 | 9.4 | 2.8 | 1.3 | 3.6 | 3.8 | 0.5 | 1.1 | 2.6 | 4.3 | -0.3 | 2.7 | 0.1 | 6.6 | 11.5 | 1.2 | 5.9 | 4.2 | ΔTm [21]: 6.4 °C; ΔTm [22]: 0.9 °C; ΔTm [23]: 1.7 °C; ΔTm [24]: 3.2 °C; ΔTm [25]: 4.5 °C; ΔTm [26]: 1.5 °C; ΔTm [27]: 1.1 °C; ΔTm [28]: 0.2 °C; ΔTm [29]: 2.6 °C; ΔTm [30]: 3.9 °C |
| CC(C)n1cnc2c(NCc3ccccc3)nc(NCCCO)nc21 | 2.5 | -0.3 | 0.1 | 0.4 | -0.1 | 1.1 | 0 | 0.3 | 0.2 | 0.2 | 0.4 | 2 | 1.4 | 0.1 | 0.4 | 0.9 | 0.5 | 0.7 | 0.4 | -0.4 | ΔTm [21]: 1 °C; ΔTm [22]: 0.4 °C; ΔTm [23]: 0.3 °C; ΔTm [24]: -0.5 °C; ΔTm [25]: -0.7 °C; ΔTm [26]: 2.2 °C; ΔTm [27]: 0.1 °C; ΔTm [28]: 1.8 °C; ΔTm [29]: 0.4 °C; ΔTm [30]: 0.4 °C |
| N#C/C(=C\c1ccc(O)c(O)c1)C(=O)NCc1ccccc1 | 1.2 | 0.2 | -0.4 | 1.3 | 0.3 | 0.7 | 0.4 | 0.6 | 0.7 | 0.1 | 0.3 | 0.2 | 0.4 | 0 | 1 | 0.9 | 2.6 | 1.8 | 0.8 | 0.7 | ΔTm [21]: 3.1 °C; ΔTm [22]: 0.8 °C; ΔTm [23]: 0.7 °C; ΔTm [24]: -0.6 °C; ΔTm [25]: -0.2 °C; ΔTm [26]: 0.7 °C; ΔTm [27]: 0.2 °C; ΔTm [28]: 0.7 °C; ΔTm [29]: 1.5 °C; ΔTm [30]: 2.9 °C |
